Results on 33 compounds are retold here after patent publication US20080293712A1, “Benzo[C][2,7]Naphtyridine Derivatives, Methods of Making Thereof and Methods of Use Thereof” (WYETH, priority 2007, published 2008).

The first test concerns the target T1, PDK-1 (Homo sapiens, UniProt O15530).
T1 sequence (O15530 1-556): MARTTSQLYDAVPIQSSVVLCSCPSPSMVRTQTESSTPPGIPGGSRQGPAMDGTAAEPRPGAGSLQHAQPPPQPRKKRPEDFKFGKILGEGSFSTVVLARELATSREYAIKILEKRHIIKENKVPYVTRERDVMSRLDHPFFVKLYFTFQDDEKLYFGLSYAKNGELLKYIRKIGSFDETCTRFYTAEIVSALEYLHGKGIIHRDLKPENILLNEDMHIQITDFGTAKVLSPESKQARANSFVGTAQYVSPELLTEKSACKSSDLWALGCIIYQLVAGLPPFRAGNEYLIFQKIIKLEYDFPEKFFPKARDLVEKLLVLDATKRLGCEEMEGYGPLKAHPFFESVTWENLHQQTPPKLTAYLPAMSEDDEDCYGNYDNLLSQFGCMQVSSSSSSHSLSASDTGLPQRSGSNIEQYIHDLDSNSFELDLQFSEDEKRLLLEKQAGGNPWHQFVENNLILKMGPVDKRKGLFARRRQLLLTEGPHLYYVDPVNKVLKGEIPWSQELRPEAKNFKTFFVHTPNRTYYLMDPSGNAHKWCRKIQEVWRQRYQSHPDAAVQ
Put plainly: PDK-1 kinase inhibition ELISA assay (phosphorylation of His6-tagged SGK1 S422D by PDK-1). In kind it is biochemical.
Conditions: not given
For orientation: IC50 means the midpoint of a concentration-inhibition curve. Compound `COCCNc1cc2c(cnc3cc(OCCOC)c(OC)cc32)c(N)n1` [Ia-55, 9-methoxy-8-(2-methoxyethoxy)-N^2-(2-methoxyethyl)benzo[c]-2,7-naphthyridine-2,4-diamine] displayed an IC50 of 7.49 µM.

Take `COCCOc1cc2ncc3c(N)nc(N(C)C)cc3c2cc1OC` [Ia-60, 9-Methoxy-8-(2-methoxyethoxy)-N^2,N^2-dimethylbenzo[c]-2,7-naphthyridine-2,4-diamine]: 0.739 µM corresponded to half-maximal inhibition (IC50).

The same test, now with this note: PDK-1 ELISA, Table 11; read-out: Average IC50.
As for `COc1cc2ncc3c(NO)nc(-c4cncc(OC[C@@H](N)Cc5c[nH]c6ccccc56)c4)cc3c2cc1OC` [Compound I-1, 2-(5-{[(2S)-2-amino-3-(1H-indol-3-yl)propyl]oxy}pyridin-3-yl)-N-hydroxy-8,9-dimethoxybenzo[c]-2,7-naphthyridin-4-amine], the IC50 came out at 0.08 µM.

As for `COc1cc2ncc3c(NO)nc(-c4cncc(OC[C@@H](N)Cc5cccc(Cl)c5)c4)cc3c2cc1OC` [Compound I-2, 2-(5-{[(2S)-2-amino-3-(3-chlorophenyl)propyl]oxy}pyridin-3-yl)-N-hydroxy-8,9-dimethoxybenzo[c]-2,7-naphthyridin-4-amine], the IC50 was over 0.1 µM.

On to `COCCOc1cc2ncc3c(NCc4cccnc4)nc(NCc4cccnc4)cc3c2cc1OC` [Compound I-3, 9-methoxy-8-(2-methoxyethoxy)-N,N′-bis(pyridin-3-ylmethyl)benzo[c]-2,7-naphthyridine-2,4-diamine], for which the IC50 turned out to be 8.83 µM.

Turning to `CCN1CCCC1CNc1cc2c(cnc3cc(OCCOC)c(OC)cc32)c(NCC2CCCN2CC)n1` (stereo not drawn) [Compound I-4, N,N′-bis[(1-ethylpyrrolidin-2-yl)methyl]-9-methoxy-8-(2-methoxyethoxy)benzo[c]-2,7-naphthyridine-2,4-diamine], the IC50 is over 20 µM.

Turning to `COc1cc2c(cc1OCCN1CCN(C)CC1)ncc1c(N)nc(-n3ccnc3)cc12` [Ia-10, 2-(1H-imidazol-1-yl)-9-methoxy-8-(2-(4-methylpiperazin-1-yl)ethoxy)benzo[c][2,7]naphthyridin-4-amine], the IC50 came out at 1.15 µM.

Turning to `COc1cc2c(cc1OCC1CCN(C)CC1)ncc1c(N)nc(-c3ccncc3)cc12` [Ia-22, 9-Methoxy-8-[(1-methylpiperidin-4-yl)methoxy]-2-pyridin-4-ylbenzo[c]-2,7-naphthyridin-4-amine], the 50% inhibitory concentration (IC50) worked out at 6.92 µM.

Consider `CCOc1cc2ncc3c(N)nc(-n4ccnc4)cc3c2cc1NC(=S)NCCN1CCOCC1` [Ia-26, N-[4-amino-8-ethoxy-2-(1H-imidazol-1-yl)benzo[c]-2,7-naphthyridin-9-yl]-N′-(2-morpholin-4-ylethyl)thiourea], for which the IC50 was 0.549 µM.

As for `Nc1nc(-n2ccnc2)cc2c1cnc1cc(Br)ccc12` [Ia-37, 8-Bromo-2-(1H-imidazol-1-yl)benzo[c]-2,7-naphthyridin-4-amine], the IC50 is 0.527 µM.

On to `COCCN(C)c1cc2ncc3c(N)nc(-c4cncc(OC[C@@H](N)Cc5ccccc5)c4)cc3c2cc1OC` [Ia-38, 2-(5-{[(2S)-2-amino-3-phenylpropyl]oxy}pyridine-3-yl)-9-methoxy-N^8-(2-methoxyethyl)-N^8-methylbenzo[c]-2,7-naphthyridin-4,8-diamine], for which the IC50 was 0.0695 µM.

With `COc1cc2c(cc1N1CCOCC1)ncc1c(N)nc(-c3cncc(OC[C@@H](N)Cc4ccccc4)c3)cc12` [Ia-39, 2-(5-{[(2S)-2-Amino-3-phenylpropyl]oxy}pyridin-3-yl)-9-methoxy-8-morpholin-4-ylbenzo[c]-2,7-naphthyridin-4-amine], the IC50 was 0.059 µM.

For the compound `COCCOc1cc2ncc3c(N)nc(N4CCCCC4C)cc3c2cc1OC` (stereo not drawn) [Ia-43, 9-methoxy-8-(2-methoxyethoxy)-2-(2-methylpiperidin-1-yl)benzo[c]-2,7-naphthyridin-4-amine], the IC50 was found to be 2.45 µM.

`COCCOc1cc2ncc3c(N)nc(N(C)CC4OCCO4)cc3c2cc1OC` [Ia-44, N^2-(1,3-dioxolan-2-ylmethyl)-9-methoxy-8-(2-methoxyethoxy)-N^2-methylbenzo[c]-2,7-naphthyridine-2,4-diamine]: the IC50 amounted to 2.68 µM.

Consider `COCCOc1cc2ncc3c(N)nc(N(C)C(C)C)cc3c2cc1OC` [Ia-45, N^2-isopropyl-9-methoxy-8-(2-methoxyethoxy)-N^2-methylbenzo[c]-2,7-naphthyridine-2,4-diamine], for which the IC50 amounted to 1.43 µM.

For `CCOc1cc2ncc3c(N)nc(-c4ccc(Br)cc4)cc3c2cc1OCC` [Ia-47, 2-(4-bromophenyl)-8,9-diethoxybenzo[c]-2,7-naphthyridin-4-amine], the IC50 is over 20 µM.

Consider `COCCOc1cc2ncc3c(N)nc(NCCN4CCCCC4)cc3c2cc1OC` [Ia-49, 9-methoxy-8-(2-methoxyethoxy)-N^2-(2-piperidin-1-ylethyl)benzo[c]-2,7-naphthyridine-2,4-diamine], for which the IC50 was over 20 µM.

As for `COCCOc1cc2ncc3c(N)nc(N4CCC(C)CC4)cc3c2cc1OC` [Ia-50, 9-methoxy-8-(2-methoxyethoxy)-2-(4-methylpiperidin-1-yl)benzo[c]-2,7-naphthyridin-4-amine], the IC50 came to 2.44 µM.

As to `COCCOc1cc2ncc3c(N)nc(N4CCC(CCO)CC4)cc3c2cc1OC` [Ia-51, 2-{1-[4-amino-9-methoxy-8-(2-methoxyethoxy)benzo[c]-2,7-naphthyridin-2-yl]piperidin-4-yl}ethanol], the IC50 came out at 3.72 µM.

On to `COCCOc1cc2ncc3c(N)nc(N(C)C4CCN(C)C4)cc3c2cc1OC` (stereo not drawn) [Ia-52, 9-methoxy-8-(2-methoxyethoxy)-N2-methyl-N^2-(1-methylpyrrolidin-3-yl)benzo[c]-2,7-naphthyridine-2,4-diamine], for which the IC50 was 3.28 µM.

For `COCCOc1cc2ncc3c(N)nc(N4CCC(O)CC4)cc3c2cc1OC` [Ia-53, 1-[4-amino-9-methoxy-8-(2-methoxyethoxy)benzo[c]-2,7-naphthyridin-2-yl]piperidin-4-ol], the IC50 was found to be 2.06 µM.

With `COCCOc1cc2ncc3c(N)nc(N(C)CCOC)cc3c2cc1OC` [Ia-54, 9-methoxy-8-(2-methoxyethoxy)-N^2-(2-methoxyethyl)-N^2-methylbenzo[c]-2,7-naphthyridine-2,4-diamine], the IC50 was 2.26 µM.

Regarding `COCCOc1cc2ncc3c(N)nc(N4CCC[C@@H]4COC)cc3c2cc1OC` [Ia-56, 9-methoxy-8-(2-methoxyethoxy)-2-[(2R)-2-(methoxymethyl)pyrrolidin-1-yl]benzo[c]-2,7-naphthyridin-4-amine], the IC50 was 2.36 µM.

In the case of `COCCOc1cc2ncc3c(N)nc(N4CCOCC4)cc3c2cc1OC` [Ia-57, 9-Methoxy-8-(2-methoxyethoxy)-2-morpholin-4-ylbenzo[c]-2,7-naphthyridin-4-amine], the IC50 was 6.42 µM.

As for `COCCOc1cc2ncc3c(N)nc(OC)cc3c2cc1OC` [Ia-58, 2,9-Dimethoxy-8-(2-methoxyethoxy)benzo[c]-2,7-naphthyridin-4-amine], the IC50 amounted to 1.28 µM.

Take `COCCOc1cc2ncc3c(N)nc(Cl)cc3c2cc1OC` [Ia-61, 2-Chloro-9-methoxy-8-(2-methoxyethoxy)benzo[c]-2,7-naphthyridin-4-amine]: the IC50 was determined as 2.62 µM.

Turning to `COCCOc1cc2ncc3c(N)nc(N4CCCC4)cc3c2cc1OC` [Ia-62, 9-Methoxy-8-(2-methoxyethoxy)-2-pyrrolidin-1-ylbenzo[c]-2,7-naphthyridin-4-amine], the IC50 came out at 1.86 µM.

Turning to `COc1cc2ncc3c(N)nc(-c4cncc(OC[C@@H](N)CN5CCC(=O)CC5)c4)cc3c2cc1OC` [Ib-4, 1-[(2S)-2-amino-3-{[5-(4-amino-8,9-dimethoxybenzo[c]-2,7-naphthyridin-2-yl)pyridin-3-yl]oxy}propyl]piperidin-4-one], the IC50 was 0.029 µM.

`CCOC1(OCC)CCN(C[C@H](N)COc2cncc(-c3cc4c(cnc5cc(OC)c(OC)cc54)c(N)n3)c2)CC1` [Ib-5, 2-(5-{[(2S)-2-amino-3-(4,4-diethoxypiperidin-1-yl)propyl]oxy}pyridin-3-yl)-8,9-dimethoxybenzo[c]-2,7-naphthyridin-4-amine]: the IC50 was determined as 0.026 µM.

In the case of `COc1cc2ncc3c(N)nc(-c4cncc(OC[C@@H](N)CN(C)Cc5cccnc5)c4)cc3c2cc1OC` [Ib-6, (2S)-3-{[5-(4-amino-8,9-dimethoxybenzo[c]-2,7-naphthyridin-2-yl)pyridin-3-yl]oxy}-N1-methyl-N1-(pyridin-3-ylmethyl)propane-1,2-diamine], the IC50 is 0.004 µM.

On to `COc1cc2ncc3c(N)nc(-c4cncc(OC[C@@H](N)COS(C)(=O)=O)c4)cc3c2cc1OC` [Ib-7, (2R)-2-Amino-3-{[5-(4-amino-8,9-dimethoxybenzo[c]-2,7-naphthyridin-2-yl)pyridin-3-yl]oxy}propyl methanesulfonate], for which the IC50 turned out to be 0.016 µM.

`COc1cc2ncc3c(N)nc(-c4cncc(OC[C@@H](N)CN(C)Cc5cccc(F)c5)c4)cc3c2cc1OC` [Ib-8, (2S)-3-{[5-(4-amino-8,9-dimethoxybenzo[c]-2,7-naphthyridin-2-yl)pyridin-3-yl]oxy}-N1-(3-fluorobenzyl)-N1-methylpropane-1,2-diamine]: the IC50 came to 0.005 µM.

For `COc1cc2ncc3c(N)nc(-c4cncc(OC[C@@H](N)Cn5ccnc5)c4)cc3c2cc1OC` [Ib-9, 2-(5-{[(2S)-2-amino-3-(1H-imidazol-1-yl)propyl]oxy}pyridin-3-yl)-8,9-dimethoxybenzo[c]-2,7-naphthyridin-4-amine], the IC50 amounted to 0.02 µM.
